# Laboratory results reported in ChEMBL document CHEMBL1201862, “PubChem BioAssay data set” (2004).
#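 Values below derive from 48-hour exposures of cells grown in 96-well plates, with endpoints linearly interpolated between the two concentrations bracketing the appropriate inhibition level. Here, GI50 denotes the concentration required for 50% inhibition of growth.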 Activity calls are given as the source filed them. No stated cut-off is given here; in the data, active = GI50 up to about 1.1 µM and inactive = higher.
# Tests used:
# Assay in all cases: growth of human tumour cells (NCI), 48 h
# HCC 2998 = tested on: HCC 2998
# Malme-3M = tested on: Malme-3M
# SNB-78 = tested on: SNB-78
# SK-MEL-28 = tested on: SK-MEL-28
# UACC-62 = tested on: UACC-62
# ACHN = tested on: ACHN
# RXF 393 = tested on: RXF 393
# HCT-15 = tested on: HCT-15
# EKVX = tested on: EKVX
# OVCAR-3 = tested on: OVCAR-3
# SNB-75 = tested on: SNB-75
# NCI-H23 = tested on: NCI-H23
# XF498 = tested on: XF498
# SF-268 = tested on: SF-268
# U-251 = tested on: U-251
# SN12C = tested on: SN12C
# DLD-1 = tested on: DLD-1
# OVCAR-5 = tested on: OVCAR-5
# NCI-H226 = tested on: NCI-H226
# DMS-114 = tested on: DMS-114
# SNB-19 = tested on: SNB-19
# LOX IMVI = tested on: LOX IMVI
# UO-31 = tested on: UO-31
# SK-MEL-2 = tested on: SK-MEL-2
# KM12 = tested on: KM12
# HT-29 = tested on: HT-29
# SF-539 = tested on: SF-539
# HCT-116 = tested on: HCT-116
# NCI-H460 = tested on: NCI-H460
# SK-OV-3 = tested on: SK-OV-3
# UACC-257 = tested on: UACC-257
# M14 = tested on: M14
# M19-MEL = tested on: M19-MEL
# TK-10 = tested on: TK-10
# LXFL 529 = tested on: LXFL 529
# HOP-62 = tested on: HOP-62
# OVCAR-4 = tested on: OVCAR-4
# KM-20L2 = tested on: KM-20L2
# CAKI-1 = tested on: CAKI-1
# SK-MEL-5 = tested on: SK-MEL-5
# MOLT-4 = tested on: MOLT-4
# RPMI-8226 = tested on: RPMI-8226
# K562 = tested on: K562
# SW-620 = tested on: SW-620
# OVCAR-8 = tested on: OVCAR-8
# COLO 205 = tested on: COLO 205
# IGROV-1 = tested on: IGROV-1
# A498 = tested on: A498
# A549 = tested on: A549
# HOP-92 = tested on: HOP-92
# 786-0 = tested on: 786-0
# SF-295 = tested on: SF-295
# NCI-H522 = tested on: NCI-H522
# CCRF-CEM = tested on: CCRF-CEM
# DMS-273 = tested on: DMS-273
structure (smiles),measurement,setting,value
CC(C)C(C)C(C)(C)P(C)(C)=O (configuration not stated),GI50,HCC 2998,> 100 µM (inactive)
same,GI50,Malme-3M,> 100 µM (inactive)
same,GI50,SNB-78,> 100 µM (inactive)
same,GI50,SK-MEL-28,> 100 µM (inactive)
same,GI50,UACC-62,> 100 µM (inactive)
same,GI50,ACHN,> 100 µM (inactive)
same,GI50,RXF 393,> 100 µM (inactive)
same,GI50,HCT-15,> 100 µM
same,GI50,EKVX,> 100 µM (inactive)
same,GI50,OVCAR-3,> 100 µM (inactive)
same,GI50,SNB-75,> 100 µM (inactive)
same,GI50,NCI-H23,> 100 µM (inactive)
same,GI50,XF498,> 100 µM (inactive)
same,GI50,SF-268,> 100 µM (inactive)
same,GI50,U-251,> 100 µM (inactive)
same,GI50,SN12C,> 100 µM (inactive)
same,GI50,DLD-1,> 100 µM (inactive)
same,GI50,OVCAR-5,> 100 µM (inactive)
same,GI50,NCI-H226,> 100 µM (inactive)
same,GI50,DMS-114,> 100 µM (inactive)
same,GI50,SNB-19,> 100 µM (inactive)
same,GI50,LOX IMVI,> 100 µM (inactive)
same,GI50,UO-31,> 100 µM (inactive)
same,GI50,SK-MEL-2,> 100 µM (inactive)
same,GI50,KM12,> 100 µM (inactive)
same,GI50,HT-29,> 100 µM (inactive)
same,GI50,SF-539,> 100 µM (inactive)
same,GI50,HCT-116,> 100 µM (inactive)
same,GI50,NCI-H460,> 100 µM (inactive)
same,GI50,SK-OV-3,> 100 µM (inactive)
same,GI50,UACC-257,> 100 µM (inactive)
same,GI50,M14,> 100 µM (inactive)
same,GI50,M19-MEL,> 100 µM (inactive)
same,GI50,TK-10,> 100 µM (inactive)
same,GI50,LXFL 529,> 100 µM (inactive)
same,GI50,HOP-62,> 100 µM (inactive)
same,GI50,OVCAR-4,> 100 µM (inactive)
same,GI50,KM-20L2,> 100 µM (inactive)
CC(=O)NC(CCCNC(=O)OCc1ccccc1)C(=O)NCc1ccccc1 (configuration not stated),GI50,HCC 2998,> 100 µM (inactive)
same,GI50,CAKI-1,> 100 µM (inactive)
same,GI50,Malme-3M,> 100 µM (inactive)
same,GI50,SK-MEL-28,> 100 µM (inactive)
same,GI50,UACC-62,> 100 µM (inactive)
same,GI50,ACHN,> 100 µM (inactive)
same,GI50,RXF 393,> 100 µM (inactive)
same,GI50,HCT-15,> 100 µM
same,GI50,SK-MEL-5,> 100 µM (inactive)
same,GI50,MOLT-4,> 100 µM (inactive)
same,GI50,EKVX,> 100 µM (inactive)
same,GI50,OVCAR-3,> 100 µM (inactive)
same,GI50,SNB-75,41.8 µM (inactive)
same,GI50,RPMI-8226,> 100 µM (inactive)
same,GI50,NCI-H23,> 100 µM (inactive)
same,GI50,XF498,> 100 µM (inactive)
same,GI50,SF-268,> 100 µM (inactive)
same,GI50,K562,> 100 µM (inactive)
same,GI50,U-251,> 100 µM (inactive)
same,GI50,SW-620,> 100 µM (inactive)
same,GI50,OVCAR-8,> 100 µM (inactive)
same,GI50,SN12C,> 100 µM (inactive)
same,GI50,COLO 205,> 100 µM (inactive)
same,GI50,DLD-1,> 100 µM (inactive)
same,GI50,OVCAR-5,> 100 µM (inactive)
same,GI50,NCI-H226,> 100 µM (inactive)
same,GI50,IGROV-1,> 100 µM (inactive)
same,GI50,DMS-114,> 100 µM (inactive)
same,GI50,SNB-19,> 100 µM (inactive)
same,GI50,A498,> 100 µM (inactive)
same,GI50,A549,> 100 µM (inactive)
same,GI50,LOX IMVI,> 100 µM (inactive)
same,GI50,UO-31,> 100 µM (inactive)
same,GI50,SK-MEL-2,> 100 µM (inactive)
same,GI50,KM12,> 100 µM (inactive)
same,GI50,HT-29,> 100 µM (inactive)
same,GI50,SF-539,> 100 µM (inactive)
same,GI50,HCT-116,> 100 µM (inactive)
same,GI50,HOP-92,> 100 µM (inactive)
same,GI50,NCI-H460,> 100 µM (inactive)
same,GI50,786-0,> 100 µM (inactive)
same,GI50,SF-295,> 100 µM (inactive)
same,GI50,SK-OV-3,> 100 µM (inactive)
same,GI50,UACC-257,> 100 µM (inactive)
same,GI50,M14,> 100 µM (inactive)
same,GI50,M19-MEL,> 100 µM (inactive)
same,GI50,TK-10,> 100 µM (inactive)
same,GI50,NCI-H522,> 100 µM (inactive)
same,GI50,CCRF-CEM,> 100 µM (inactive)
same,GI50,LXFL 529,> 100 µM (inactive)
same,GI50,HOP-62,> 100 µM (inactive)
same,GI50,DMS-273,> 100 µM (inactive)
same,GI50,OVCAR-4,> 100 µM (inactive)
same,GI50,KM-20L2,> 100 µM (inactive)
